ChEMBL document CHEMBL1201862, “PubChem BioAssay data set” (2004)
Calls of active or inactive are those of the source.

Columns and labels:
[1] = Luminescent dose response cell-based high throughput screening assay for inhibitors of the Janus kinase 2 mutant JAK2V617F. [Related pubchem assays: 1446 (Primary screen.), 1521 (Confirmation assay.), 1486 (Counter screen.)]; type: functional
[2] = Luminescence Cell-Based Dose Confirmation HTS to Identify Activators of 5'UTR Stem-Loop Driven Alpha-Synuclein mRNA Translation in H4 Neuroglioblastoma Cells. [Related pubchem assays: 1829 (Project Summary), 1814 (Primary HTS)]; type: functional
[3] = Luminescence Cell-Based Dose Response HTS to Identify Activators of Luciferase Translation or Activity in H4 […] Cells. [Related pubchem assays: 1829 (Project Summary), 1814 (Primary HTS)]; type: functional
H4 = assay: Luminescence Cell-Based Dose Response HTS to Identify Activators of 5'UTR Stem-Loop Driven Prion Protein mRNA Translation in H4 Neuroglioblastoma Cells. [Related pubchem assays: 1829 (Project Summary), 1814 (Primary HTS)]; type: functional; conditions: Homo sapiens
[4] = HEK-293T viability loss after treatment – luminescence, T-cell screen hits, cytotoxicity control for TCR NF-kB inhibitor project, dose response (AID 489026); type: functional, cell-based;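 further: cells exposed to compound about 14 hours before the viability readout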
Mucolipin-3 = target: T1, Mucolipin-3 (Homo sapiens, UniProt Q8TDD5); assay: Dose response cell-based high-throughput screening assay for agonists of the transient receptor potential channel ML3 (TRPML3). [Related pubchem assays: 1526, 1424, 1448 ]; type: functional
T1 sequence (Q8TDD5 whole entry): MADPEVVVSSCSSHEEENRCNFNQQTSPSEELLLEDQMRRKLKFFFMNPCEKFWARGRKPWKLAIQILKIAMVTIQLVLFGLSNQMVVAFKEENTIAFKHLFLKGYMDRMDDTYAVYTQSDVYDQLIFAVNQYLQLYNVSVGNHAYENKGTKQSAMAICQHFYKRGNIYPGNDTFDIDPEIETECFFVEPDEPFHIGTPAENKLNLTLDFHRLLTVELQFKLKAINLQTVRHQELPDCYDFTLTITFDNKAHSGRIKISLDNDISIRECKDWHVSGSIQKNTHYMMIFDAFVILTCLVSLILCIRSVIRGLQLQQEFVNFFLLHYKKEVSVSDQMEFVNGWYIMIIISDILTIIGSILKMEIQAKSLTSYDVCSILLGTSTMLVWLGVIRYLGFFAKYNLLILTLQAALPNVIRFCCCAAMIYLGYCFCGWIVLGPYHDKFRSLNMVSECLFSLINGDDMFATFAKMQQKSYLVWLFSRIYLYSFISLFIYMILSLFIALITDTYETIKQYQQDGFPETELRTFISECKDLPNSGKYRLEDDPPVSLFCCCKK

Ion channel NompC = Ion channel NompC (Danio rerio, UniProt Q7T1G6); assay: Fluorescence counterscreen assay for TRPML3 agonists: dose response cell-based high-throughput screening assay to identify agonists of the transient receptor potential channel N1 (TRPN1). [Related pubchem assays: 1526, 1424, 1448 ]; type: functional
Chain of Ion channel NompC (Q7T1G6 whole entry): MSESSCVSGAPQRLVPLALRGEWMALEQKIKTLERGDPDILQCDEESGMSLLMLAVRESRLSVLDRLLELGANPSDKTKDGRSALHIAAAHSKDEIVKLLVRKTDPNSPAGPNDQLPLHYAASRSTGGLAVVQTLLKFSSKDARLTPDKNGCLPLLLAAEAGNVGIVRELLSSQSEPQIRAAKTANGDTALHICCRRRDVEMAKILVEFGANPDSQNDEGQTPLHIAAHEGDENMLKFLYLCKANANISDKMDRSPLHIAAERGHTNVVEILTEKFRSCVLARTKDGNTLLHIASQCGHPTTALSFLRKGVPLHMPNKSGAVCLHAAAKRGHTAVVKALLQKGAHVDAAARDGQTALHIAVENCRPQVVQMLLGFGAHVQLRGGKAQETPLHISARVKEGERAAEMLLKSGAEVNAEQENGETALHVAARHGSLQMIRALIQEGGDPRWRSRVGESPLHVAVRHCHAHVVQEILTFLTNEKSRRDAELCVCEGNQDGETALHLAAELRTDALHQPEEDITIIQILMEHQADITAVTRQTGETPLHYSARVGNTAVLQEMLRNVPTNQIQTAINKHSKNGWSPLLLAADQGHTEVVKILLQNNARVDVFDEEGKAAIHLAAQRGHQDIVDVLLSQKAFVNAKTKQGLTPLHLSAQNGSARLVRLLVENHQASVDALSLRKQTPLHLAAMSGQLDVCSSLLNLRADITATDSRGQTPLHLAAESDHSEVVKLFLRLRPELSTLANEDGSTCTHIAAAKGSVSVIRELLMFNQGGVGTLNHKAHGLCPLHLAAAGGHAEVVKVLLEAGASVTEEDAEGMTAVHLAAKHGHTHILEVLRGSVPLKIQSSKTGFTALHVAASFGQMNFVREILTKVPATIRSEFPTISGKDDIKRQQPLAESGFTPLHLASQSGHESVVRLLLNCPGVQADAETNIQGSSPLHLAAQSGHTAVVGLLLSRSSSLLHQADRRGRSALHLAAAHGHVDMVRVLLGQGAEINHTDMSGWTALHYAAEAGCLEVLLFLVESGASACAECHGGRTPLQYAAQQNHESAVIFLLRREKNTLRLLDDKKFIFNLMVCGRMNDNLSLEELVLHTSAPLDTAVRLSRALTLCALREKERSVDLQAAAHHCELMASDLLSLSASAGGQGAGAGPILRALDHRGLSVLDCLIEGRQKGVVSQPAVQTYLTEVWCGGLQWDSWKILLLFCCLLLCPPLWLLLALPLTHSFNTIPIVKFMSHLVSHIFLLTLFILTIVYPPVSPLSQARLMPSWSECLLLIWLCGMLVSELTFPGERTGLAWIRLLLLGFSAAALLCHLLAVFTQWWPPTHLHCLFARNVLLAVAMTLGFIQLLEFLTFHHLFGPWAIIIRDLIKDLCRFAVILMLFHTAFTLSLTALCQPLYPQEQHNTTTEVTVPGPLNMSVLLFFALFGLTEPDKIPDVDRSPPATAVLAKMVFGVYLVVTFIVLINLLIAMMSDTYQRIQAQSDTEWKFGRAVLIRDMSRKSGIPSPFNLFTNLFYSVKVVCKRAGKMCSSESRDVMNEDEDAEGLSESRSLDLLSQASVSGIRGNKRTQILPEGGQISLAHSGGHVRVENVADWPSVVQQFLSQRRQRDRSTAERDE

[5] = Luminescence Cell-Based Dose Retest to Confirm Inhibitors of Cancer Stem Cells. [Related pubchem assays (depositor defined):AID2717, AID2721]; type: functional; conditions: Homo sapiens
[6] = Fluorescence-based cell-based high throughput dose response assay for inhibitors of the interaction of nucleotide-binding oligomerization domain containing 2 (NOD2) and the receptor-interacting serine-threonine kinase 2 (RIPK2).; type: functional; conditions: Homo sapiens
[7] = target: Peroxisome proliferator-activated receptor gamma/Nuclear receptor coactivator 2 (Homo sapiens, UniProt P37231); type: functional;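 further: agonist potency for raising coactivator recruitment to the receptor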
Chain of Peroxisome proliferator-activated receptor gamma/Nuclear receptor coactivator 2 (P37231 whole entry): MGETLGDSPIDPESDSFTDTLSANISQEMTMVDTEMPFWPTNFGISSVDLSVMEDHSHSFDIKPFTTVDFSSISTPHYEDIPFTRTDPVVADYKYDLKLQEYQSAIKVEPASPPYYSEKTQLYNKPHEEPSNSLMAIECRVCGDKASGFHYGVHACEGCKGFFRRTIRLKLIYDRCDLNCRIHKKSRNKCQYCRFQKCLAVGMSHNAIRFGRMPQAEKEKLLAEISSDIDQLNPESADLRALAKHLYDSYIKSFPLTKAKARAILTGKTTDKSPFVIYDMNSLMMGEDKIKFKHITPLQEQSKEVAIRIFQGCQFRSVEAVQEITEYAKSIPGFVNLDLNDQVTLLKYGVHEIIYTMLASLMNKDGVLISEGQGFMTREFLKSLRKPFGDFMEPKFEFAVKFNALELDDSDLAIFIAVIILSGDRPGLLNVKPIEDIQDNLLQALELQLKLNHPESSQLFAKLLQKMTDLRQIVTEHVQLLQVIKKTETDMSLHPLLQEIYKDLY
Chain of Peroxisome proliferator-activated receptor gamma/Nuclear receptor coactivator 2 (Q15596 whole entry, further chain): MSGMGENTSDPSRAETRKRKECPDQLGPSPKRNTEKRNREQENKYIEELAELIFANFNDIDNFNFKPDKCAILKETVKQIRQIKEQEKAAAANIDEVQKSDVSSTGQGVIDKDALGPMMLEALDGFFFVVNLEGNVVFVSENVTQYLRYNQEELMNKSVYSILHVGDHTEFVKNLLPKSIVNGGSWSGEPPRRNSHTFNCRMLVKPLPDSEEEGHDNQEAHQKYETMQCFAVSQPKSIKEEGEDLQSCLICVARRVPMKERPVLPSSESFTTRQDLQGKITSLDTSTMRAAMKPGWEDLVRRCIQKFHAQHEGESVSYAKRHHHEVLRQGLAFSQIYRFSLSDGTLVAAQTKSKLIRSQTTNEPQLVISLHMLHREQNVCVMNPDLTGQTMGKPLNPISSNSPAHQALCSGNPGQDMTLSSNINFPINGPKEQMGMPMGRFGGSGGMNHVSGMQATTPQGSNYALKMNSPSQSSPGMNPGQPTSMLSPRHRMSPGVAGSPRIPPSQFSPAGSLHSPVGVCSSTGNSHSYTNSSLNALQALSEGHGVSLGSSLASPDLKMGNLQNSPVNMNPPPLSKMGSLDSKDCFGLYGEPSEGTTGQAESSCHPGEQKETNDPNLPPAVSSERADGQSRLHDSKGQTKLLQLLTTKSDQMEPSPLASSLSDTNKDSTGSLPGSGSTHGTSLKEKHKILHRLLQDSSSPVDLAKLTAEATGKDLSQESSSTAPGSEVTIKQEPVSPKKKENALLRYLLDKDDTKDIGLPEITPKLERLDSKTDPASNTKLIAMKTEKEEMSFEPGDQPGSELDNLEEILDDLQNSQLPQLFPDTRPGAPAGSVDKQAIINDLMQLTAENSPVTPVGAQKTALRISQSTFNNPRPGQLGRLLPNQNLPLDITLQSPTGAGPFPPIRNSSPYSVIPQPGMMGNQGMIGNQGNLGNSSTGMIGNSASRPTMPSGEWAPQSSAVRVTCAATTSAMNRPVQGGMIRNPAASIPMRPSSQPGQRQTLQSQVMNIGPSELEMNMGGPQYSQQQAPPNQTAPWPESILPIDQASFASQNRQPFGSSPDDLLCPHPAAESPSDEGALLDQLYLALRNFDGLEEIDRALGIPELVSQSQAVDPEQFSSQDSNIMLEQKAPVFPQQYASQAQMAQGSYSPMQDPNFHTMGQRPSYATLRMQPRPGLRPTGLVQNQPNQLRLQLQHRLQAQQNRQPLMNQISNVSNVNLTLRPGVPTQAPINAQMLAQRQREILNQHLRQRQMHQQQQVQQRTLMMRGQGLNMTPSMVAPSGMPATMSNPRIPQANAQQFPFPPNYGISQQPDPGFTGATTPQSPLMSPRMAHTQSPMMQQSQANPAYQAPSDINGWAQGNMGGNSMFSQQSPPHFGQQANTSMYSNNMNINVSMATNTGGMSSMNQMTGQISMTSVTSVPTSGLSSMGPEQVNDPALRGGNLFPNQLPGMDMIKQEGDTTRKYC

[8] = target: Peroxisome proliferator-activated receptor gamma/Nuclear receptor coactivator 1 (Homo sapiens, UniProt P37231); type: functional;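 further: agonist potency as compounds enhance coactivator SRC-1 recruitment to PPARgamma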
[9] = target: Peroxisome proliferator-activated receptor gamma/Nuclear receptor coactivator 3 (Homo sapiens, UniProt P37231); type: functional;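 further: agonist potency for raising coactivator recruitment to the receptor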
[10] = Trypanosoma cruzi growth suppression in host cells – NIH3T3 host cells, beta-gal luminescence, confirmation (AID 2044); type: functional, cell-based;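 further: intracellular parasites grown in NIH/3T3 mouse fibroblasts as host cells; luminescent beta-galactosidase reporter signal from transgenic T. cruzi replicating inside host cells; inhibitors lower the luminescence signal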
[11] = target: T2, Aryl hydrocarbon receptor (Homo sapiens, UniProt P35869); assay: Luminescence-based cell-based high throughput dose response assay for activators of the Aryl Hydrocarbon Receptor (AHR). [Related pubchem assays: 2796 (Primary screen (AHR activators in singlicate)), 2845 (Confirmation screen (AHR activators in triplicate)), 434939 (Counterscreen (PXR activators in triplicate)), 2804 (Summary (AHR activators))]; type: ADME
T2 sequence (P35869 whole entry): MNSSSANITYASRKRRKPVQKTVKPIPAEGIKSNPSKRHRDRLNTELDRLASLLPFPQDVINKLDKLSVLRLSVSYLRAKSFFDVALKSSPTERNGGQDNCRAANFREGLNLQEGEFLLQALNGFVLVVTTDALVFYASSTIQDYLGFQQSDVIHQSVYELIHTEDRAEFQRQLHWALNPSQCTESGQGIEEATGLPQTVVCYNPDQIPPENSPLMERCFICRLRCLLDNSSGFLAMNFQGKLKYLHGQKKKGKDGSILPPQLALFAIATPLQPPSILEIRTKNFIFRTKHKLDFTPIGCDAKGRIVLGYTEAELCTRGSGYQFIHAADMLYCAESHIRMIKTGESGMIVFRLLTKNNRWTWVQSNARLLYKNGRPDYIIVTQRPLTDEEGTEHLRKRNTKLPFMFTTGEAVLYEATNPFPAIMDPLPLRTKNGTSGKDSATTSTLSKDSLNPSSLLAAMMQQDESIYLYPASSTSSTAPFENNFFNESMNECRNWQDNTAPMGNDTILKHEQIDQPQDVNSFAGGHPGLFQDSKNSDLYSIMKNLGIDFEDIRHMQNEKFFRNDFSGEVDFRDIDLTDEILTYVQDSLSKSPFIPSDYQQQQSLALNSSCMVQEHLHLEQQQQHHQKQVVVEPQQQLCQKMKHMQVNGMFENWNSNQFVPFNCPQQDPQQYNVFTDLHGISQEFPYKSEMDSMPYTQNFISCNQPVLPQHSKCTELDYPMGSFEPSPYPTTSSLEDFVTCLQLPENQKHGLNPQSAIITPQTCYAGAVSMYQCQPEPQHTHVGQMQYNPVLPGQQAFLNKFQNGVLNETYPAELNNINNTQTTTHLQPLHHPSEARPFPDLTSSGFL

[12] = NIH3T3 cell viability loss – ATP luminescence, mouse fibroblasts, counter-screen, dose response (AID 2010); type: functional, cell-based;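 further: cells exposed to compound for about 90 hours before reading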
[13] = target: E3 ubiquitin-protein ligase Mdm2 (Homo sapiens, UniProt Q00987); assay: MDM2-luc reporter signal enhancers, multi-concentration potency testing, MDM2 ubiquitin-protein ligase inhibitor program, whole-cell format, luminescence detection, 384-well microplate (AID 1394); type: functional;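 further: MDM2 E3 inhibitors raise luminescence so EC50 is for signal enhancement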
Chain of E3 ubiquitin-protein ligase Mdm2 (Q00987 whole entry): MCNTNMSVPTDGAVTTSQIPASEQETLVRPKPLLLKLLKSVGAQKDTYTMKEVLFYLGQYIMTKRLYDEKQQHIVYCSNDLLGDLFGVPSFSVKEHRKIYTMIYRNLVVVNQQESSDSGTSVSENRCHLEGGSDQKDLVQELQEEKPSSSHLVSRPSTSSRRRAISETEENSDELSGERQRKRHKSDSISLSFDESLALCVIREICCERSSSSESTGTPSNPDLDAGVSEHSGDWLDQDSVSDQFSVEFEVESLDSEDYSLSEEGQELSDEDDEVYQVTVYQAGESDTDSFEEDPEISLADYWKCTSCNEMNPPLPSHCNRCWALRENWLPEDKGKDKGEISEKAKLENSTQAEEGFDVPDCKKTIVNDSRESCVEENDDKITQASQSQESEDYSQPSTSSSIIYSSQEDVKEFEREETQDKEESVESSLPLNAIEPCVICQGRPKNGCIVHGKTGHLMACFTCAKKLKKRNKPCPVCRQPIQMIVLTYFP

Vero = assay: cells; type: functional; conditions: Chlorocebus sabaeus
[14] = luciferase reporter signal suppression in cells – H4 neuroglioma cells, luminescence, dose response (AID 1990); type: functional, cell-based
BJ [15] = assay: BJ-TERT fibroblast viability loss – cell-based, RAS-independent, luminescence, dose response (AID 1933); type: functional; conditions: Homo sapiens
[16] = Luminescence Cell-Based Dose Response HTS to Identify Inhibitors of 5'UTR Stem-Loop Driven Prion Protein mRNA Translation in H4 Neuroglioblastoma Cells. [Related pubchem assays: 1827 (Project Summary), 1813 (Primary HTS)]; type: functional
[17] = alpha-synuclein stem-loop luciferase translation blockers – H4 neuroglioma cells, luminescence, confirmation (AID 1988); type: functional, cell-based
BJ [18] = assay: cells; type: functional, cell-based; conditions: Homo sapiens
[19] = Luminescence-based dose response cell-based high throughput screening assay for cytotoxic compounds using the IEC-6 intestinal epithelial cell line. [Related pubchem assays: 1858 (Summary AID.), 1825 (Counterscreen.), 1907 (Confirmation screen.)]; type: functional
BJ [20] = assay: BJ-TERT-LT-ST fibroblast viability loss – cell-based, RAS-independent, luminescence, dose response (AID 1935); type: functional; conditions: Homo sapiens;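 further: BJ fibroblasts immortalized with TERT plus LT and ST oncogenes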
[21] = DRD fibroblast viability loss – cell-based, non-viral oncogenic, luminescence, dose response (AID 1934); type: functional; conditions: Homo sapiens
[22] = viability inhibitors of stage V gametocytes – luminescence, dose response (AID 1117278); type: functional, cell-based;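 further: gametocytes exposed to compound for 24 hours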
[23] = viability loss in human Jurkat cells – cell-based, luminescence, cytotoxicity control for P. falciparum gametocyte viability project, dose response (AID 1117277); type: functional;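 further: potency reflects loss of cellular ATP meaning fewer viable cells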
Estrogen receptor beta [24] = target: T3, Estrogen receptor beta (Homo sapiens, UniProt Q92731);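 further: recombinant ER-beta bound to coactivator SRC1 peptide in presence of estradiol agonist; inhibitors block coactivator peptide binding and lower the FRET signal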
T3 sequence (Q92731 whole entry): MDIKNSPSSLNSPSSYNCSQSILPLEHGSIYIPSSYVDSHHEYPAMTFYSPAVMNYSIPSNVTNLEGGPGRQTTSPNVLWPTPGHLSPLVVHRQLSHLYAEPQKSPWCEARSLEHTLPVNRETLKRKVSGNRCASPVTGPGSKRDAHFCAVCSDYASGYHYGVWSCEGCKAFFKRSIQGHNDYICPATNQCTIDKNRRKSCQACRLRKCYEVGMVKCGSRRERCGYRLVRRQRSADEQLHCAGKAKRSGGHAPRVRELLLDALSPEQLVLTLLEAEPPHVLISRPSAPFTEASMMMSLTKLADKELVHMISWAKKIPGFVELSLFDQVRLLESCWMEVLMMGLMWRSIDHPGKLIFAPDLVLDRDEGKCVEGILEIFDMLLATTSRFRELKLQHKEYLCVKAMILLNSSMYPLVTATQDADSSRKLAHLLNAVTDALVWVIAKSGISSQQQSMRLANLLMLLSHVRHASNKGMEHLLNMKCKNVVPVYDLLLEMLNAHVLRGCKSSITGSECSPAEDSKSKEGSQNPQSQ

Estrogen receptor beta [25] = target: T3, Estrogen receptor beta; assay: blockers of SRC-3 recruitment to ERβ – biochemical, ELISA, streptavidin-HRP readout, orthogonal assay, confirmation (AID 1060)
[26] = NIH-3T3 fibroblast cytotoxicity, dose response, cytotoxicity control, cell-based, fluorescence, Alamar Blue, secondary assay (AID 2327); type: functional;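 further: NIH-3T3 mouse fibroblasts cultured with fluconazole at 8 µg/mL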
[27] = fluconazole-exposed Candida albicans growth modulators – fluorescence, retest, confirmation (AID 2467); type: functional, cell-based
[28] = target: Luciferin 4-monooxygenase (Photinus pyralis, UniProt P08659); assay: inhibition of purified Photinus pyralis luciferase – biochemical, luminescence, dose response (AID 1891)
[29] = Luminescence Cell-Based Dose Confirmation HTS to Identify Inhibitors of Platelet Dense Granule Release. [Related pubchem assays: 1663 (Primary HTS), 1678 (Summary of Project)]; type: functional
[30] = target: Heat shock protein HSP 90-alpha (Homo sapiens, UniProt P07900); assay: Luminescence-based dose response biochemical high throughput screening assay for inhibitors of the Heat Shock Protein 90 (HSP90). [Related pubchem assays: 1831 (Summary AID.), 1846 (Confirmation screen.), 1789 (Primary screen.)]
INS1 = assay: INS-1E survival protection against cytokine death – cell-based, luminescence, retest, dose response (AID 449756); type: functional; conditions: Rattus norvegicus;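 further: cell death triggered by IL-1 beta plus TNF-alpha plus IFN-gamma mixture; protective hits raise ATP signal compared with cytokine alone wells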
[31] = target: Mitogen-activated protein kinase 10 (Homo sapiens, UniProt P53779); assay: Dose response biochemical screening assay for inhibitors of c-Jun N-Terminal Kinase 3 (JNK3). [Related pubchem assays: 746 ]
Chain of Mitogen-activated protein kinase 10 (P53779 whole entry): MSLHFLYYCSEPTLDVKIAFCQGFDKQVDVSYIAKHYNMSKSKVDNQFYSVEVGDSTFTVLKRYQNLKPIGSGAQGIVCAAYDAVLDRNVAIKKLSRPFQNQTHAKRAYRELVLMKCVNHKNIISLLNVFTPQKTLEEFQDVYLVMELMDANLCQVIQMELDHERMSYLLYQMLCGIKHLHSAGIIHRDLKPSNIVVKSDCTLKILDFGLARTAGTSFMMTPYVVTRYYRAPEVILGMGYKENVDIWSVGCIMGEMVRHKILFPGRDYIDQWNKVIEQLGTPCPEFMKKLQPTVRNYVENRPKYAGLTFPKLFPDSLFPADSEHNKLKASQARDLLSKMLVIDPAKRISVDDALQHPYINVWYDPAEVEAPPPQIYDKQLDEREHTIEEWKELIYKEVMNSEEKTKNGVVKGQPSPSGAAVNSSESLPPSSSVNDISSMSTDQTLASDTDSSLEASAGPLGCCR

[32] = Luminescence Cell-Based Dose Confirmation HTS to Identify Inhibitors of Polyadenylation.; type: functional

Structure (SMILES): O=C1C=CCC(/C=C/c2ccccc2)O1 (stereo unspecified)
- IC50 [1]: 1.31 µM (active)
- EC50 [2]: > 120 µM (not active)
- EC50 [3]: > 120 µM (not active)
- EC50 (H4): 98.3 µM (active)
- IC50 [4]: > 80 µM (inactive)

Structure (SMILES): O=S(=O)(c1cnc(Cl)c(Br)c1)N1CCc2ccccc21
- IC50 [1]: 4.22 µM (active)
- EC50 (Mucolipin-3): 7.71 µM (active)
- EC50 (Ion channel NompC): > 29.9 µM (not active)
- AC50 [5]: 12.1 µM (inconclusive)
- IC50 [6]: 6.35 µM (active)

Structure (SMILES): CCOc1ccc(/C=N/n2cc(-c3ccccc3)nc2S)cc1
- EC50 [7]: > 79.4 µM (not active)
- EC50 [8]: > 79.4 µM (not active)
- EC50 [9]: > 79.4 µM (not active)
- EC50 [10]: 2.35 µM (active)
- EC50 [11]: 4.76 µM (active)
- EC50 [12]: > 60 µM (not active)

Structure (SMILES): CN(C)c1n/c(=N/Cc2ccco2)ss1
- EC50 [13]: 0.26 µM (active)
- CC50 (Vero): 23.8 µM (active)

Structure (SMILES): Cc1ccc(-n2ncc(C(=O)Nc3cc(Cl)cc(Cl)c3)c2C2CCNCC2)cc1C
- EC50 [14]: > 120 µM (not active)
- EC50 (BJ [15]): 3.72 µM (active)
- EC50 [16]: 9.16 µM (active)
- EC50 [17]: 7.75 µM (active)
- EC50 (BJ [18]): 8.6 µM (inconclusive)
- EC50 [10]: 2.02 µM (active)
- IC50 [19]: 5.23 µM (active)
- EC50 [12]: > 30 µM (not active)
- EC50 (BJ [20]): 6.96 µM (inconclusive)
- EC50 [21]: 5.28 µM (active)

Structure (SMILES): Nc1nc(SCC(=O)N2CCCC2)nc(O)c1NC(=O)c1cccs1
- IC50 [22]: > 109 µM (inactive)
- IC50 [23]: > 83.2 µM (inactive)

Structure (SMILES): Cc1ccc(NC(=O)COc2ccc(-n3cnnn3)cc2)cc1C
- IC50 (Estrogen receptor beta [24]): > 50 µM (not active)
- IC50 (Estrogen receptor beta [25]): < 0.023 µM (not active)

Structure (SMILES): CCCCOc1ccc(-c2cc(C(=O)NN=C(S)NCC)c3ccccc3n2)cc1
- EC50 [26]: 16.1 µM (inconclusive)
- EC50 [27]: 1.8 µM (active)
- EC50 [28]: 0.516 µM (active)
- EC50 [29]: < 0.701 µM (active)
- IC50 [30]: 2.45 µM (active)
- AC50 (INS1): 3.2 µM (active)

Structure (SMILES): CCOc1cc(C2NC(=O)NC(C)=C2C(=O)OCc2ccccc2)ccc1O (stereo unspecified)
- IC50 [31]: 34.6 µM (not active)

Structure (SMILES): O=C(N/N=C/c1ccsc1)c1cc2ccccc2o1
- EC50 [32]: > 120 µM (not active)

Structure (SMILES): CC(NC(=O)CCCCCCN1C(=O)c2ccccc2C1=O)c1ccc2c(c1)CCCC2 (stereo unspecified)
- EC50 [32]: > 120 µM (not active)

Structure (SMILES): COC(=O)CCCC(=O)NC(C)c1cnn(-c2ccccc2C)c1C (stereo unspecified)
- IC50 [22]: > 109 µM (inactive)
- IC50 [23]: > 83.3 µM (inactive)

Structure (SMILES): Cc1nc(Cl)sc1C(=O)Nc1ccc(C(F)(F)F)cc1
- EC50 [11]: 1.57 µM (active)

Structure (SMILES): O=c1[nH]c2ccccc2c2nc3ccccn3c12
- IC50 [31]: 13.8 µM (not active)

Structure (SMILES): COCCNc1nc2nonc2nc1N(C)Cc1cccc2cnccc12
- EC50 [13]: 0.22 µM (not active)
